Measurements from article PMC4599001, “Selective Irreversible Inhibition of Neuronal and Inducible Nitric-oxide Synthase in the Combined Presence of Hydrogen Sulfide and Nitric Oxide” (The Journal of Biological Chemistry, 2015).
Several values for one entry are separate records, joined by “and”; a condition that tells them apart may be missing. Equal values may be shown once. Entries after “also recorded” stand apart in the source; their conditions may differ. Read-outs that look alike come from different tables or passages of the source. Blank lines part the entries; values can stand above or below the molecule they belong to.

How the values were obtained:
nNOS [1] = target: T1, nNOS (Homo sapiens, UniProt P29475); details: for ActH2S, specific activity (citrulline formation) / Inhibition / vNO^H2S, NO formation rate: 0.5 mM H2S
nNOS [2] = target: T1, nNOS; assay: NADPH oxidation by nNOS (340 nm); format: biochemical
eNOS [3] = target: T2, eNOS (Homo sapiens, UniProt P29474); assay: NADPH oxidation by eNOS (340 nm); format: biochemical; details: +Arg, +BH4, without Na2S
[4] = cited from earlier work; for t1/2 of NO release: ref 35
nNOS [5] = details: read-out: IC50, inhibition of nNOS, cited from earlier work
mouse macrophage iNOS = target: T3, mouse macrophage iNOS (Mus musculus, UniProt P29477); format: biochemical; details: pH 7.4; read-out: IC50, citrulline formation by iNOS
T3 construct: made in house; host or cells: Escherichia coli

eNOS [6] = target: T2, eNOS; format: biochemical; details: for ActH2S, specific activity (citrulline formation) / Inhibition / vNO^H2S, NO formation rate: 0.5 mM H2S
Target sequence in this assay (P29474 2-1203): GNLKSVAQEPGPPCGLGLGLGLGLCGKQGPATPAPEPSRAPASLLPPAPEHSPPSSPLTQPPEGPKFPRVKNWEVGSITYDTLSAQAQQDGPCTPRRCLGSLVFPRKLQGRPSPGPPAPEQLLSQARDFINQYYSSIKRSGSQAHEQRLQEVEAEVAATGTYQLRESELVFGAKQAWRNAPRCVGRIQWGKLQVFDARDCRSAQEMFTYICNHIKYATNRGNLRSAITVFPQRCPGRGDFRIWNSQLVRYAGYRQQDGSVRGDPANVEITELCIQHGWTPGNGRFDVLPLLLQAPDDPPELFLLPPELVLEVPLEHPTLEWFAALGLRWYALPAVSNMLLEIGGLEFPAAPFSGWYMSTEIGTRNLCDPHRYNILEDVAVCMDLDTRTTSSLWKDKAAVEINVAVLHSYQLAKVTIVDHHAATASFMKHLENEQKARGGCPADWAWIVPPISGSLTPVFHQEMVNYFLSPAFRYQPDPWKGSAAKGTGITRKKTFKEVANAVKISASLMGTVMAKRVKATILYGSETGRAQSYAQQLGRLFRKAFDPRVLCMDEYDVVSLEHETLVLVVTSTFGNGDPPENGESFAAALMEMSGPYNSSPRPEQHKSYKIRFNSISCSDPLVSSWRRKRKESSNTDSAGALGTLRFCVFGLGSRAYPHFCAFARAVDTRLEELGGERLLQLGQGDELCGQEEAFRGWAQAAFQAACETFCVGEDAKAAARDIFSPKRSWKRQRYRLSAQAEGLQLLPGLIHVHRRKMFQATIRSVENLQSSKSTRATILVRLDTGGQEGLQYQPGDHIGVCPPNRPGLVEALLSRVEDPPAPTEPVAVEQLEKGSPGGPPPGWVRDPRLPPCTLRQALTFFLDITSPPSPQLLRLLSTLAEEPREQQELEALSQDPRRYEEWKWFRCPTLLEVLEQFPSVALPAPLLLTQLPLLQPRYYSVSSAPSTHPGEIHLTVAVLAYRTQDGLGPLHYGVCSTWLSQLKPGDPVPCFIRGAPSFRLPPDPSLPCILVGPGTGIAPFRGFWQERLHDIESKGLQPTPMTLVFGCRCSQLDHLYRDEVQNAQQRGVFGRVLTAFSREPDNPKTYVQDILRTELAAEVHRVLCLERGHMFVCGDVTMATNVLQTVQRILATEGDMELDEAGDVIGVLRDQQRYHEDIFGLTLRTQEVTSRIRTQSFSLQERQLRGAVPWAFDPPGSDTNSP

nNOS [7] = target: T1, nNOS; format: binding
nNOS [8] = target: T1, nNOS; format: biochemical
nNOS [9] = target: T1, nNOS
eNOS [10] = target: T2, eNOS
[11] = 37 °C; cited from earlier work

T1 sequence (P29475 whole entry): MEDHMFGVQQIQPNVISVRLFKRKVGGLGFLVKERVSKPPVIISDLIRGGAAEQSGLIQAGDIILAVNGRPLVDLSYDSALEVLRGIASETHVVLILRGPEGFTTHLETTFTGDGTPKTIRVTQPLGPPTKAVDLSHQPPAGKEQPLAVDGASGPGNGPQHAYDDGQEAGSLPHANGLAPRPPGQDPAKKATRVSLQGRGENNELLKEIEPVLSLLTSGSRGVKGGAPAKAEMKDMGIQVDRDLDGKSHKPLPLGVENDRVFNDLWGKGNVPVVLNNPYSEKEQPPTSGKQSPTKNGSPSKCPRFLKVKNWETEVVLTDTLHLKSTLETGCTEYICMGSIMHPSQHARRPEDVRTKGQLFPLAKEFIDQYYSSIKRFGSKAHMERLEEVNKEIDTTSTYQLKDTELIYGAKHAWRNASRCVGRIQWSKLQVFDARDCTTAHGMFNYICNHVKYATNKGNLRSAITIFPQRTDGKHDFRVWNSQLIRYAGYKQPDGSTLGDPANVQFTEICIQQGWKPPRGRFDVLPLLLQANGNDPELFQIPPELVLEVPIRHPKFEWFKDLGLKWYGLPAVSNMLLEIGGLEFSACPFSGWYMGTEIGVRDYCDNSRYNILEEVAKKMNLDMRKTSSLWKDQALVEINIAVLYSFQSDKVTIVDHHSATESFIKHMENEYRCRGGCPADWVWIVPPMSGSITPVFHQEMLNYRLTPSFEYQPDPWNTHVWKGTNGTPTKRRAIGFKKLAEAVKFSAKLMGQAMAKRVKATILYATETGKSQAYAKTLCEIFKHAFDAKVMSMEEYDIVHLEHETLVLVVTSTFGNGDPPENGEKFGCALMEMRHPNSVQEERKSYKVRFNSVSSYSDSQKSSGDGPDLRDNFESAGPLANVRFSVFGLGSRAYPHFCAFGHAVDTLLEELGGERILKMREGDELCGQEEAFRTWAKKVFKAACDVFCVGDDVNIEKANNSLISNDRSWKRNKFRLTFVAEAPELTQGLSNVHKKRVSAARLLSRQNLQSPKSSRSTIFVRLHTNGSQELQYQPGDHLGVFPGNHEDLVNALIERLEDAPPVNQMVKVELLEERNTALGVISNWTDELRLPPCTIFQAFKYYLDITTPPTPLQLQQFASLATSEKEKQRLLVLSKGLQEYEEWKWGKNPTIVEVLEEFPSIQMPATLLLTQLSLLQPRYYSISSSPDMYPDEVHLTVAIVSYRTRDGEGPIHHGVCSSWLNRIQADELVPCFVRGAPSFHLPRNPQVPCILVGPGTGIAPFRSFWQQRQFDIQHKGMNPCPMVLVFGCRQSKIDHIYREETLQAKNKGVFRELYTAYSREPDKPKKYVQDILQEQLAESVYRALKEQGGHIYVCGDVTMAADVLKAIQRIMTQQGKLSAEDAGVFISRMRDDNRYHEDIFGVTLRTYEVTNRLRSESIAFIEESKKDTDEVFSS
T3 sequence (P29477 whole entry): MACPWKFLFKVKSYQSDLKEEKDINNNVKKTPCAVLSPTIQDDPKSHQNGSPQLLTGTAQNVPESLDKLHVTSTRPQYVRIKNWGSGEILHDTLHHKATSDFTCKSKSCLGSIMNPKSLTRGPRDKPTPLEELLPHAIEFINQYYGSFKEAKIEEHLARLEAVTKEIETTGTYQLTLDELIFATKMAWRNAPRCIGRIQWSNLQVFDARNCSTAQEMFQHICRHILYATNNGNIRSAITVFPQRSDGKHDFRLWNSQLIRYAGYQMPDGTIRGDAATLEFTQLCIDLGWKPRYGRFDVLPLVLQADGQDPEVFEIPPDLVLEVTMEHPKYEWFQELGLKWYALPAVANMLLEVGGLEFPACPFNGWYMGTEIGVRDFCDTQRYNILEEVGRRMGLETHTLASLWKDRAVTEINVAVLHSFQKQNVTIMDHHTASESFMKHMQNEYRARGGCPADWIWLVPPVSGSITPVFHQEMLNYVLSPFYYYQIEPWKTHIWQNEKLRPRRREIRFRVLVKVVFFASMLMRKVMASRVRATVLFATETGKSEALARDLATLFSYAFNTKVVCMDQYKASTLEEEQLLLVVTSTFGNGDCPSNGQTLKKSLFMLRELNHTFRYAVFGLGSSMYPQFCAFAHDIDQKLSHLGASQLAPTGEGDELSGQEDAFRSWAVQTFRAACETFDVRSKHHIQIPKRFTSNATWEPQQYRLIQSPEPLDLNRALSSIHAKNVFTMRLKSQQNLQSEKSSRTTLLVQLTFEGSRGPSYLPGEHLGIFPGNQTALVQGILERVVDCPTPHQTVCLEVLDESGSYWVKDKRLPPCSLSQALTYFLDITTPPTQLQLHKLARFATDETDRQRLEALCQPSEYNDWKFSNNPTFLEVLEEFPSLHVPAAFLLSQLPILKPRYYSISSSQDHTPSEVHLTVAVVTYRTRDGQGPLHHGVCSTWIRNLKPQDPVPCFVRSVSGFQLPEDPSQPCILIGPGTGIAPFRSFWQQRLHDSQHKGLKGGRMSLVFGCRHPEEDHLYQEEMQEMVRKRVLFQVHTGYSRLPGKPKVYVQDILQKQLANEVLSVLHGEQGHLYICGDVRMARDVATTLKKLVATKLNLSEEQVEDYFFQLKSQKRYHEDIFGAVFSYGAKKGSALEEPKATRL

SMILES: [Na+].[Na+].[O-][N+]([O-])=NO [Angeli's salt, disodium diazen-1-ium-1,2,2-triolate]
Reversal of inhibition by thiols (nNOS [1]; 10 mM GSH or 2 mM DTT present): completely reversed in the presence of thiols | IC50 (nNOS [1]; read-out: IC50, citrulline formation by nNOS, Angeli's salt as HNO donor, 50 mM TEA pH 7.4, 10 min, 37 °C): 190 µM

IC50 (nNOS [2]; +Arg, −BH4, in the absence of Na2S, read-out: IC50, NADPH oxidation by nNOS): ~80 µM | IC50 (nNOS [2]; +Arg, −BH4, in the presence of 10 μM Na2S, read-out: IC50, NADPH oxidation by nNOS): ~10 µM | IC50 (eNOS [3]): 100 µM
SMILES: O=C([O-])[C@@H]1CCCN1[N+]([O-])=NO.O=C([O-])[C@@H]1CCCN1[N+]([O-])=NO.[Na+].[Na+] [PROLI/NO, 1-(hydroxy-NNO-azoxy)-L-proline, disodium salt]
t1/2 of NO release [4]: 0.017 to 0.033 min

SMILES: O[C@@H](CS)[C@@H](O)CS [DTT]
IC50 (nNOS [5]; ref 16): 13200 µM | IC50 (nNOS [5]; ref 27): 160 µM

SMILES: C1COCCN1.COc1ccc(P(=S)(S)N2CCOCC2)cc1 (centres unmarked) [GYY4137]
IC50 (nNOS [1]; read-out: Apparent IC50, citrulline formation by nNOS): 2200 µM | t½ of H2S release ([4]; ref 34): ~415 min

SMILES: [Na+].[Na+].[S-2] [Na2S, sodium sulfide]
IC50 (mouse macrophage iNOS): ~79 µM and 79 µM | Effect on eNOS activity (eNOS [6]): hardly affected | Effect on citrulline formation by eNOS (eNOS [6]; pH 7.4): hardly affected at all; also recorded: only marginally affected | Extent of spectral transition to thiol complex (nNOS [7]): approximately 50% | Decrease of nNOS activity after dilution (nNOS [8]): approximately 70% | Reversal of inhibition by thiols (nNOS [8]): none of these thiols restored the activity | nNOS activity after dilution (nNOS [8]): not affected | Dimeric enzyme, gel filtration (nNOS [9]): ~55% | Dimer/monomer ratio of eNOS (eNOS [10]): not affected by Na2S at all | Effect of thiols on IC50 of inhibition of citrulline formation (nNOS [1]): none of these thiols had any impact on IC50 values | nNOS activity blocked (nNOS [1]): ~90% | pKa from plot of IC50 against pH (nNOS [1]): 7.310 ± 0.014 | IC50 (nNOS [1]; read-out: IC50, citrulline formation by nNOS): 23 µM | IC50 (nNOS [1]; read-out: IC50, citrulline formation by nNOS, pH 6): ~15 µM and 15 µM | IC50 (nNOS [1]; read-out: IC50, citrulline formation by nNOS, pH 7.4): ~24 µM and 24 µM and 31 µM | IC50 (nNOS [1]; read-out: IC50, citrulline formation by nNOS, pH 8): ~83 µM and 83 µM

SMILES: S [H2S, hydrogen sulfide]
ActH2S, specific activity (citrulline formation) (eNOS [6]; eNOS 2.0 μg/ml): 98 ± 12 nmol/mg/min | Inhibition (eNOS [6]; eNOS 2.0 μg/ml): 24 ± 16% | vNO^H2S, NO formation rate (eNOS [6]; eNOS 2.0 μg/ml): 0.20 ± 0.02 µM/min | ActH2S, specific activity (citrulline formation) (eNOS [6]; eNOS 10.0 μg/ml): 134 ± 16 nmol/mg/min | Inhibition (eNOS [6]; eNOS 10.0 μg/ml): 16 ± 12% | vNO^H2S, NO formation rate (eNOS [6]; eNOS 10.0 μg/ml): 1.34 ± 0.16 µM/min | ActH2S, specific activity (citrulline formation) (eNOS [6]; eNOS 15.0 μg/ml): 146 ± 19 nmol/mg/min | Inhibition (eNOS [6]; eNOS 15.0 μg/ml): 5 ± 14% | vNO^H2S, NO formation rate (eNOS [6]; eNOS 15.0 μg/ml): 2.2 ± 0.3 µM/min | ActH2S, specific activity (citrulline formation) (eNOS [6]; eNOS 30.0 μg/ml): 136 ± 38 nmol/mg/min | Inhibition (eNOS [6]; eNOS 30.0 μg/ml): −6 ± 35% | vNO^H2S, NO formation rate (eNOS [6]; eNOS 30.0 μg/ml): 4.1 ± 1.1 µM/min | IC50 (nNOS [2]; Arg and/or BH4 omitted, no NO (span over conditions), read-out: IC50, reversible inhibition of nNOS by H2S alone): 100 to 600 µM | Decrease of nNOS activity after dilution (nNOS [8]; preincubation with 0.5 mM Na2S under turnover conditions (+CaM), 150-fold dilution): ~70% | nNOS activity after dilution (nNOS [8]; preincubation with 0.5 mM Na2S, CaM omitted during preincubation): activity was not affected | ActH2S, specific activity (citrulline formation) (nNOS [1]; nNOS 0.5 μg/ml): 53 ± 26 nmol/mg/min | Inhibition (nNOS [1]; nNOS 0.5 μg/ml): 86 ± 7% | vNO^H2S, NO formation rate (nNOS [1]; nNOS 0.5 μg/ml): 0.026 ± 0.013 µM/min | ActH2S, specific activity (citrulline formation) (nNOS [1]; nNOS 2.0 μg/ml): 31 ± 8 nmol/mg/min | Inhibition (nNOS [1]; nNOS 2.0 μg/ml): 92 ± 2% | vNO^H2S, NO formation rate (nNOS [1]; nNOS 2.0 μg/ml): 0.062 ± 0.016 µM/min | ActH2S, specific activity (citrulline formation) (nNOS [1]; nNOS 10.0 μg/ml): 24 ± 2 nmol/mg/min | Inhibition (nNOS [1]; nNOS 10.0 μg/ml): 92 ± 1% | vNO^H2S, NO formation rate (nNOS [1]; nNOS 10.0 μg/ml): 0.24 ± 0.02 µM/min | ActH2S, specific activity (citrulline formation) (nNOS [1]; nNOS 15.0 μg/ml): 29 ± 2 nmol/mg/min | Inhibition (nNOS [1]; nNOS 15.0 μg/ml): 91 ± 1% | vNO^H2S, NO formation rate (nNOS [1]; nNOS 15.0 μg/ml): 0.44 ± 0.03 µM/min | pKa of the H2S/HS− equilibrium [11]: 6.76

IC50 (nNOS [2]; absence of BH4, with Na2S, after 10 min, read-out: Apparent IC50, potentiation of the inhibitory effect of Na2S on NADPH oxidation by nNOS): 106 µM
SMILES: NCCCNCCCCN(CCCN)/[N+]([O-])=N/O [SPER/NO, (Z)-1-[N-[3-aminopropyl]-N-[4-(3-aminopropylammonio)butyl]amino]diazen-1-ium-1,2-diolate]
t1/2 of NO release [4]: ~30 min
